From article PMC12052742, “Engineering a newly identified alcohol dehydrogenase from Sphingobium Sp. for efficient utilization of nicotinamide cofactors biomimetics” (Bioresources and Bioprocessing, 2025) come the findings set out here.

Experiment [1] relates to SpADH2 variant A47L. Description: Activity of variant in oxidation of syringyl alcohol with p-BANA^+ (Fig. 5), A47L. The format is biochemical, Sphingobium sp. SYK-6. The conditions noted are these: cofactor p-BANA^+, substrate syringyl alcohol. The procedure:
(§1) In the first round of screening, saturation mutagenesis was constructed for six positions (W114, T177, G172, G316, A47, and R227). […] Therefore, in the second round of mutagenesis, six additional sites within the 5 Å range of the cofactor ribose (H43, V202, T265, V288, G289, and A290) were selected for saturation mutagenesis screening (Fig. 6c and Fig. S6). Three beneficial mutations were identified. […] Subsequently, combinatorial mutagenesis was performed, resulting in 11 double variants and 3 triple variants.
(§2) Fig. 5 Relative activity of SpADH2 and its variants in oxidation of syringyl alcohol when utilizing p-BANA^+ as cofactor
(§3) In preliminary screening by spectrophotometric analysis, PBS (pH 7.5) buffer (50 µL) in a 96-well plate was pre-warmed at 30°C for 15 min, and a final concentration of 5 mM p-BANA^+ and 1 mM substrate syringyl alcohol were added, and 50 µL of crude enzyme were add to each well to start the reaction, with WT as control. The reaction mixture was incubated at 30°C for 1 h, followed by addition of fluorescent probes in a final concentration of 0.2 mM, and was subjected to determination under 537 nm as described above.

Experiment [2] deals with SpADH2 variant A290I. Description: Cofactor spectrum (HPLC specific activity), variant A290I. The class given is biochemical, Sphingobium sp. SYK-6. The conditions noted are these: 1a 5 mM, cofactor 7.5 mM, pH 7.5, 30℃, 5 µg enzyme, 1 h. The procedure:
(§4) Fig. 8 Cofactor spectrums of SpADH2 and its variants. The darkness of color for each cofactor stands for the activity. For each cofactor cube, top left: WT, top right: H43L, bottom left: A290I, bottom right: H43L/A290I. (a) Natural cofactors and NMN^+ are shown in purple. (b) tsNCBs are shown in cyan. The evaluation of cofactor spectrum was carried out under following conditions: 50 mM PBS buffer (pH 7.5) and 30℃, with 1a (5 mM) as substrate and different cofactors (7.5 mM) as cofactor. For NAD(P)^+ and NMN^+, 0.05 µg enzyme was added, and for tsNCBs, 5 µg enzyme was added. The results were analyzed by HPLC after 1 h reaction
(§5) Specific activity of SpADH2 in cofactor spectrum study was determined by HPLC analysis. PBS (pH 7.5) buffer was pre-heated at 30°C for 15 min. For NAD(P)^+ and NMN^+, 0.05 µg SpADH2 was added to PBS buffer (100 µL). For tsNCBs, 5 µg SpADH2 was added. A final concentration of 7.5 mM cofactor was added to the reaction mixture. Finally, a final concentration of 5 mM substrate was added to start the reaction. The reactions were conducted at 30°C.
(§6) One unit of enzyme activity is defined as the amount of enzyme required to form 1 µmol 1b per minute at pH 7.5 and 30°C. Same reaction without cofactor was used as a blank control.

The subject of experiment [3] is SpADH2 variant A47G. Description: Activity of variant in oxidation of syringyl alcohol with p-BANA^+ (Fig. 5), A47G. The class given is biochemical, Sphingobium sp. SYK-6. The conditions noted are these: cofactor p-BANA^+, substrate syringyl alcohol. The method, then:
as §1, §2, §3

The test system of experiment [4] is SpADH2 variant A290I. Description: Cofactor kinetic assay, A290I. The class given is biochemical, Sphingobium sp. SYK-6. The method, then:
(§7) Specific activity of SpADH2 in substrate spectrum study was measured spectrophotometrically. PBS (pH 7.5) buffer was pre-heated at 30°C for 15 min. For NAD^+, 0.05 µg SpADH2 was added to the PBS buffer (100 µL), and a final concentration of 2 mM NAD^+ was added. For tsNCBs cofactor p-BANA^+, 5 µg SpADH2 and a final concentration of 7.5 mM p-BANA^+ was added. The mixture was carried out in a 96-well microplate, and a final concentration of 5 mM substrate was added to start the reaction. The microplate was incubated in 30°C for 1 h. Florescent probes (2-[2-(1,4-dihydro-1-methyl-3-quinolinyl)ethenyl]-1,3,3-trimethyl-3H-indolium) in a final concentration of 0.2 mM (100 µL) was added (Scheme S1), and the microplate was placed in a microplate reader immediately for measurement under 537 nm (Fomin et al. [2016]).
(§8) Kinetic analysis of SpADH2 and its variants were carried out following Michaelis-Menten equation or Michaelis-Menten excess substrate inhibition equation. For of the substrate kinetic assays, concentrations of cofactors were fixed at 5 mM for NAD^+ and 7.5 mM for p-BANA^+. For cofactor kinetic assays, the concentration of 1a was fixed at 5 mM.
(§9) Specific activity was determined spectrophotometrically as above except that gradient 1a (0−20 mM) or cofactor (0−35 mM) concentrations were applied.
(§10) Cofactor specificity ratio (CSR) represents the ratio of catalytic efficiency of p-BANA^+ to NAD^+ for each enzyme, and relative specificity (RS) stands for the CSR ratio of variants to WT (King et al. [2020]).

Experiment [5] has as its target SpADH2 WT (Sphingobium sp. SYK-6, UniProt G2IIZ8). Description: Cofactor kinetic assay, WT. The format is biochemical. The method, then:
as §7, §8, §9, §10

In experiment [6] the test system is SpADH2 variant A290I. Description: Activity of variant in oxidation of syringyl alcohol with p-BANA^+ (Fig. 5), A290I. To be noted: cofactor p-BANA^+, substrate syringyl alcohol. The class given is biochemical, Sphingobium sp. SYK-6. The procedure:
as §1, §2, §3

Experiment [7] relates to SpADH2 variant H43L/A290I. Description: Substrate kinetic assay, H43L/A290I. The format is biochemical, Sphingobium sp. SYK-6. The method, then: as §7, §8, §9, §10
The subject of experiment [8] is SpADH2 variants (H43L, A290I, H43L/A290I). Description: Cofactor spectrum (HPLC specific activity), all variants together. The class given is biochemical, Sphingobium sp. SYK-6. To be noted: 1a 5 mM, cofactor 7.5 mM, pH 7.5, 30℃. The procedure: as §4, §5, §6
The subject of experiment [9] is SpADH2 variant H43L. Description: Substrate kinetic assay, H43L. The class given is biochemical, Sphingobium sp. SYK-6. The procedure: as §7, §8, §9, §10
The mark [10] stands for this setting: cofactor (= label) varied, 1a fixed at 5 mM.
Where [11] appears, read: cofactor (= label) varied, 1a fixed at 5 mM, read-out: Ki (cofactor inhibition).
[12] abbreviates: cofactor kinetics, cofactor = label.
Where [13] appears, read: 1a varied, cofactor (= label) fixed: 5 mM NAD^+ or 7.5 mM p-BANA^+.
Setting [14] is: substrate kinetics, cofactor = label.

SpADH2 WT, sequence (G2IIZ8 1-372): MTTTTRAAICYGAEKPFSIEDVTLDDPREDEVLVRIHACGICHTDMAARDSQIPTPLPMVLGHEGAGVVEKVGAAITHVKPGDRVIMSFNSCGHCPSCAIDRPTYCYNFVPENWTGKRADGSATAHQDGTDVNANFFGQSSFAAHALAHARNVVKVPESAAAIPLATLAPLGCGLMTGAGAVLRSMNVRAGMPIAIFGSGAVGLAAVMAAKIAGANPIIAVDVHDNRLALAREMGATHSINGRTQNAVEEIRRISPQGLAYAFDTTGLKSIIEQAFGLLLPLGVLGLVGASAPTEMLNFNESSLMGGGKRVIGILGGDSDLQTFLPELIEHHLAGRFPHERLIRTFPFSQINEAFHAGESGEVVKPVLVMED

Usually Km stands for the concentration of substrate that gives half-maximal velocity. In general, Ki refers to the equilibrium dissociation constant of an inhibitor or competing ligand from its target. Consider `NC(=O)c1ccc[n+](Cc2ccc(C(=O)O)cc2)c1` [p-BANA^+, para-3-carbamoyl-1-(4-carboxybenzyl)pyridin-1-ium], for which the “fold higher activity than WT” value in [1] worked out at 4.3 fold; in experiment [3] it was 1.3 fold. The “catalytic activity with the tsNCB as cofactor” value in experiment [2] is given as 160.82 U/g. In addition, the kcat in experiment [4] (setting [10]) stood at 13 ± 2.5 min^− 1; in experiment [5] (setting [10]) it was 1.6 ± 0.5 min^− 1; in [7] (setting [13]) it was 6.8 ± 1.6 min^− 1; in experiment [9] (setting [13]) it was 2.5 ± 0.9 min^− 1. In addition, the Km in experiment [4] (cofactor (= label) varied, 1a fixed at 5 mM, pH 7.5, 30°C) worked out at 14 ± 3.8 mM. In addition, the Ki in experiment [4] (setting [11]) stood at 18 ± 5.8 mM; in [5] (setting [11]), 12 ± 4.7 mM. Besides, the “Cofactor specificity ratio (catalytic efficiency of p-BANA^+ to NAD^+)” value in experiment [4] (cofactor kinetics) is on record as 2.96×10^-4; in experiment [5] (cofactor kinetics), 3.81×10^-5; in experiment [7] (substrate kinetics) it was 0.1026; in experiment [9] (substrate kinetics), 9.30×10^-4. Further, the “Relative specificity (CSR ratio of variant to WT)” value is reported as 7.77 in experiment [4] (cofactor kinetics); 6750 in [7] (substrate kinetics, in text as fold improvement in CSR); 61.2 in experiment [9] (substrate kinetics). For the same compound, the “fold higher catalytic efficiency (kcat/Km) than WT” value in experiment [4] (setting [12]) is given as 10 fold. Besides, the “fold increase in kcat value vs WT” value in [4] (setting [12]) is given as 7.9 fold. Besides, the “fold increase in activity vs WT” value in experiment [6] was found to be 10 fold. The “fold increase in kcat vs WT” value in experiment [7] (setting [14]) is 6 fold; in experiment [9] (setting [14]) it was 2 fold. The “reduce in Km value vs WT” value in experiment [7] (setting [14]) is reported as 30%. The “catalytic activity of all variants with the cofactor (in words)” value in experiment [8] is “highest activity”.
